Consider one molecule from patent US20230414657A1, “Novel compositions for neutralizing toxic effects of hydrogen peroxide in living cells or tissues” (Dzala LLC, priority 2020, published 2023).

The test system of experiment [1] is C. elegans. The class given is in vivo. Particulars: 100 mM H2O2 plus supplement (10 mM GA, 100 μM glycine or 500 μM L-serine). On the procedure: Mitochondrial staining was performed as described previously^3,4. Briefly, L1 worms were grown on plate or in liquid culture for 2-3 days at 15° C. […] Next, the excess dye was washed off with M9 buffer and worms were incubated in 100 μl M9 for 30 min to eliminate the excess dye in the gut. Finally, worms were paralyzed with 0.5 mM Levamizol (Sigma-Aldrich), placed on slides covered with a thin layer of 2% agarose on top of which the coverslip (22×22 mm, Menzel-Glaser no. 1) was fixed using nail polish. We used a Zeiss LSM 700 inverted laser scanning confocal microscope and a Zeiss LCI Plan-Neofluar 63×/1.3 ImmCorr DIC M27 objective to image mitochondria (Zeiss, Germany). MitoTracker Red CMXRos was excited at 555 nm and the emission above 560 nm was acquired by the second PMT. Optical sections at 0.1×0.1×0.5 μm^3 x-y-z resolution were collected in […]. Final images were adjusted for intensity and merged in Fiji. No non-linear adjustments were made.

The test system of experiment [2] is C. elegans. In words: Growth rate / worm size. The class given is in vivo. The settings on record: 100 mM H2O2 plus supplement (10 mM GA, 100 μM glycine or 500 μM L-serine). The procedure: Synchronized L1 worms were incubated at 15° C. on plates or in liquid culture and exposed to different conditions as indicated. Single worms were selected randomly from the plates or aliquots were taken from the liquid cultures and added to NGM plates for immediate visualization. 25 worms per treatment were measured at 24-48 hr intervals and all growth curves were done four times.

Experiment [3] has as its system gox-1, ghpr-1, gcst-1, mel-32 and gcs-1 genes. Kind of experiment: Quantitative real-time PCR of glycolate pathway genes. The format is in vivo, C. elegans. On the procedure: The differential expression of F41E6.5 (gox-1), C31C9.2 (ghpr-1), gcst-1, mel-32 and gcs-1 genes was measured using qRT-PCR. ˜5000 L1 N2 worms were exposed to each condition for 3 days at 15° Cas described above and then washed three times with H2O. Total RNA was isolated using the RNeasy Mini Kit (Qiagen) and equal amounts of all samples were reverse transcribed with SuperScript Ill (Invitrogen) using oligo(dT) 12-18 primers. cDNA quality was tested using standard PCR. qRT-PCR was performed using pre-designed TaqMan Gene Expression Assay (ThermoFischer Scientific) with at least three samples in triplicates. For the relative quantification of gene expression levels, the 2^−ΔΔCT method and results were normalized to the expression level of the cdc-42 gene. Expression levels were averaged over technical and biological replicates, […]
In general terms: Real-time PCR tracks product formation cycle by cycle.

Experiment [4] concerns C. elegans. In words: Peroxide treatment of mutant, RNAi or unstressed worms: MMP, OCR and growth read together. The format is in vivo. An excerpt:
C. elegans wild-type (N2) strain was received from Caenorhabditis Genetics Center, USA. Mutant strains were generated using the following primers. Idh-1: […] and […]; C31C9.2 (ghpr-1): […] and […]and F41E6.5 (gox-1): […]and[…]. […] Progeny of the rescued strains were genotyped for homozygous deletion with PCR primers for three generations. All mutants were outcrossed at least twice with the wild type to eliminate background mutations. Double and triple mutants were obtained by crossing single or double mutants and selecting the homozygous progeny by PCR.
For RNAi experiments in liquid, E. coli HT115 containing L4440 empty vector or the indicated cDNA fragment in L4440 was inoculated in 100 ml of LB containing 100 μg/ml ampicillin and incubated overnight at 37° C. in a shaking incubator at 250 rpm. To induce the production of dsRNA, a final concentration 0.8 mM IPTG was added to the collected bacterial pellet diluted 100-fold and incubated overnight at 25° C. in a shaking incubator at 250 rpm. Bacteria were then pelleted by centrifugation at 4000 rpm for 5 mins and resuspended in 200 μl S-medium containing 100 μg/ml ampicillin and 0.8 mM IPTG.
A population of synchronized L1 larvae was added to 30-ml glass tubes containing 2.5 ml of S-complete medium (liquid culture)^2 and NA22 or induced RNAi bacteria at an OD600 of 1.9. […] Worms were incubated at 15° C. and 150 rpm in a shaking incubator for 2-6 days, refreshing the medium every 2 days.
Mitochondrial staining was performed as described previously^3,4. Briefly, L1 worms were grown on plate or in liquid culture for 2-3 days at 15° C. Subsequently, they were pelleted in a 15-ml tube, rinsed twice with H2O and resuspended in 100 μl of M9. 5 μM MitoTracker Red CMXRos (Thermo Fisher Scientific, Germany) in DMSO was added to the worm suspension and incubated in this solution for 1.5 hr at room temperature in the dark. Next, the excess dye was washed off with M9 buffer and worms were incubated in 100 μl M9 for 30 min to eliminate the excess dye in the gut. Finally, worms were paralyzed with 0.5 mM Levamizol (Sigma-Aldrich), placed on slides covered with a thin layer of 2% agarose on top of which the coverslip (22×22 mm, Menzel-Glaser no. 1) was fixed using nail polish. We used a Zeiss LSM 700 inverted laser scanning confocal microscope and a Zeiss LCI Plan-Neofluar 63×/1.3 ImmCorr DIC M27 objective to image mitochondria (Zeiss, Germany). MitoTracker Red CMXRos was excited at 555 nm and the emission above 560 nm was acquired by the second PMT. Optical sections at 0.1×0.1×0.5 μm^3 x-y-z resolution were collected in a 4D hyperstack. Final images were adjusted for intensity and merged in Fiji. No non-linear adjustments were made.
Synchronized L1 worms were incubated at 15° C. on plates or in liquid culture and exposed to different conditions as indicated. Single worms were selected randomly from the plates or aliquots were taken from the liquid cultures and added to NGM plates for immediate visualization. 25 worms per treatment were measured at 24-48 hr intervals and all growth curves were done four times. Images were analyzed using FIJI (Image J) software, with length measurements derived by the sum-total of a number of segmented lines of known length, down the center of the worm as described previously^5.
Oxygen consumption of worms was measured with a Seahorse XFe96 system (Seahorse Bioscience, North Billerica, MA), as previously described^4. L3 larvae of the different strains were grown on plates or in liquid culture and supplemented for 2-4 days as described for each experiment. After removing bacteria and debris, approximately 100 worms were pipetted into each well of a 96-well Seahorse XF^e assay plate and OCR was measured until it stabilized. Then, 3 subsequent measurements were made at 6.5-min intervals. Finally, the exact number of worms in each well was counted and used for normalization.

Experiment [5] has as its system living organism treated with Paraquat (PQ2+). The settings on record: cited from earlier work.

On to `O=C(O)CO` [GA, glycolic acid], for which, in the experiment with C. elegans [1], the “Mitochondrial membrane potential (MMP)” value was “prevented this effect”. Besides, the Growth result in the experiment on C. elegans [2] is reported as “able to restore both traits”. The “Expression of gox-1, ghpr-1, mel-32 and gcs-1” value in experiment [3] (glycolate supplementation) is given as “moderately induced”. Besides, the “Expression of gcst-1” value in experiment [3] (peroxide or glycolate supplementation) is listed as “not significantly altered”. The “Impact on any of the parameters analyzed (FIGS. 1 and 2)” value in the experiment with C. elegans [4] (GA supplementation in the absence of H2O2) was “does not have a significant impact”. Also, the “Restoration of MMP, OCR or growth rate” value in the experiment on C. elegans [4] (H2O2, RNAi against mel-32 or gcst-1) is reported as “none of these three compounds were able to restore”. In addition, the “MMP, OCR, growth rate” value in the experiment with C. elegans [4] (H2O2, worms fed with empty vector RNAi bacteria) is reported as “restored parameters”. Moreover, the “Glycolate-mediated protection (MMP, OCR, growth)” value in the experiment on C. elegans [4] (ghpr-1, gox-1, ldh-1 triple mutant, H2O2) was “totally abolished”. Further, the “Effect of glycolate on MMP, oxygen consumption rate and developmental rate” value in the experiment on C. elegans [4] (ghpr-1 deletion mutant, H2O2 treatment) is on record as “significantly reduced effect”. In the experiment with C. elegans [4] (single mutants of gox-1 and ldh-1 or their double mutants, H2O2), the “Effect of glycolate on MMP, OCR or growth” value is on record as “no reduction in the effect”. Moreover, in experiment [5] (PQ2+ exposure), the Animal growth entry is listed as “unable to restore” and the “OCR (Oxygen consumption Rate)” value is “unable to restore”. Also, in experiment [5] (Paraquat (PQ2+) treated), the Mitochondrial membrane potential result was “can restore”.
